According to US20230364033A1, “COMPOUNDS FOR TREATING VIRUS INFECTIONS” (Meletios Therapeutics, priority 2020, published 2023):
Where two headings read alike, the source gives them in different places.

Assays:
human α-coronavirus 229E = experiment: Viral inhibition (CPE / cell viability readout) in 16HBE cells infected by α-coronavirus 229E; type: cell-based; settings: for EC50: 120 h, read-out: EC50 (concentration which results in 50% viral inhibition)
Procedure: The EC50 and CC50 of SR-31747 were determined in an in vitro model of infection by human α-coronavirus 229E.
Briefly, a dilution series of SR-31747 (8-point, half-log dose titration, 30 μM-10 nM) was added to 16HBE cells. Vehicle and positive control (remdesivir, 8-point, half-log dose titration, 20 μM-6.4 nM) wells were set up to control for any influence of the compounds alone on cell viability. Cells were visually inspected for the appearance of any cytopathic effects (CPE). A cell viability assay was performed once CPE was complete.
The readouts were: • EC50: The concentration which results in 50% viral inhibition, following the addition of compounds; • CC50: The concentration which results in 50% cell viability, following the addition of compounds; • Selectivity index: Calculated as CC50/EC50.
Protocol: • 1. 16HBE cells permissible to infection by α-coronavirus 229E were grown and seeded into 96-well plates to a confluency of 80-90%. • 2. The compounds SR-31747 and remdesivir (positive control) were serially diluted half-log into 8 concentrations in total and added to cells for 1 hour at 37° C. • 3. After 1 hour, α-coronavirus 229E was added at 100xTCID50. A mock infection of blank media was added to the uninfected controls. • 4. After infection, the virus/compound was removed and an overlay medium was added, with equivalent concentrations of the compounds. • 5. […] Once CPE was observed, supernatants were taken and stored at −80° C. • 7. A cell viability assay was then performed on all conditions, with cells receiving the treatment compared to the vehicle treated and uninfected controls. Calculations are as follows:
% viral inhibition=[(A-B)/(C-B)] x100, where: • A: mean optical density of test, B: mean optical density of virus controls, C: mean optical density of cell controls. • Negative values occur when A<B, due either to natural variation or compound toxicity.

in vitro = settings: human
SARS-CoV-2 [1] = experiment: microbe, parasite or virus in culture; type: cell-based; settings: Severe acute respiratory syndrome coronavirus 2; A549-ACE2 cells, MOI 0,1, 72 hours, viral replication inhibition; read-out: RTqPCR: IC50
SARS-CoV-2 [2] = experiment: SARS-CoV-2-infected golden hamster model of COVID-19; type: in vivo; settings: infected hamsters
Text: SR-31747 was used freshly diluted in a diluent consisting of […], 5% ethanol and 5% tween-80.
24 male hamsters RjHan:AURA SPF were acclimated during 7 days and distributed in 4 groups of 6 hamsters each: • Group 1: Infected by SARS-CoV-2 and treated by SR-31747 • Group 2: Infected by SARS-CoV-2 and treated by diluent (negative control) • Group 3: Non-infected and treated by SR-31747 • Group 4: Non-infected and treated by diluent
On day 0, hamsters were infected intranasally by SARS-CoV-2 and received a first intraperitoneal injection of SR-31747 at 40 mg/kg.
On days 1, 2 and 3 the hamsters received an intraperitoneal injection of SR-31747 at 40 mg/kg. On day 4 sera and lungs from the hamsters were sampled.
From day 0 of day 4, the body temperature of the hamsters was measured at both flanks using a touchless infrared thermometer and a cumulative clinical score was determined (ruffled fur (no=0 or yes=1), slow movements (no=0, yes=1), apathy (no=0, yes=1), absence of rearing/exploration (no=0, yes=1)).
An olfactory test was conducted on day 3 preceded by a day of fasting. Briefly, cereals were buried in the litter of an individual cage and the latency to find the hidden cereals by the hamsters was measured.

CCC(CC)COC(=O)[C@H](C)N[P@](=O)(OC[C@H]1O[C@@](C#N)(c2ccc3c(N)ncnn23)[C@H](O)[C@@H]1O)Oc1ccccc1 [Remdesivir, remdesivir, reference compound]
EC50 (human α-coronavirus 229E; 16HBE): 340 nM | CC50 (in vitro): > 20000 nM

CCN(C/C=C\c1ccc(C2CCCCC2)c(Cl)c1)C1CCCCC1 [SR-31747, N-[(Z)-3-(3-chloro-4-cyclohexylphenyl)prop-2-enyl]-N-ethylcyclohexanamine]
IC50 (SARS-CoV-2 [1]): 2880 nM | EC50 (human α-coronavirus 229E; 16HBE cells, α-coronavirus 229E at 100xTCID50, about 5 days): 1360 nM | Selectivity index (CC50/EC50) (human α-coronavirus 229E; α-coronavirus 229E, 16HBE cells): 5 | Cumulative clinical score (SARS-CoV-2 [2]; 40 mg/kg intraperitoneal days 0-3, day 4, p=0,009 Mann-Whitney test): significantly reduces | Olfactory test: latency to find hidden cereals (SARS-CoV-2 [2]; 40 mg/kg intraperitoneal, day 3): alleviates the olfactory dysfunction | Lung weight (SARS-CoV-2 [2]; 40 mg/kg intraperitoneal, day 4, increase due to infection): significantly alleviated | Body temperature (SARS-CoV-2 [2]; 40 mg/kg intraperitoneal, days 2 and 4): significantly increases
